Numbers after ± are expanded uncertainties.
Assay: xn = mol fraction of the nth substance listed
Conditions: 101 kPa, Liquid; for viscosity: Concentric cylinders viscometry; for mass density: Vibrating tube method

COC(C)(C)C [2-methoxy-2-methylpropane] + CCCCCCO
Conditions	mass density, 293.15 K [kg/m3]	mass density, 298.15 K [kg/m3]	mass density, 303.15 K [kg/m3]	mass density, 308.15 K [kg/m3]	viscosity, 293.15 K [mPa·s]	viscosity, 298.15 K [mPa·s]	viscosity, 303.15 K [mPa·s]	viscosity, 308.15 K [mPa·s]
x1 = 0.0103	818.26 ± 0.63	814.71 ± 0.63	811.1 ± 0.63	807.46 ± 0.62	5.223 ± 0.22	4.46 ± 0.19	3.832 ± 0.16	3.31 ± 0.14
x1 = 0.0204	817.68 ± 0.62	814.12 ± 0.62	810.49 ± 0.62	806.85 ± 0.61	5.039 ± 0.21	4.314 ± 0.18	3.714 ± 0.16	3.214 ± 0.13
x1 = 0.0304	817.11 ± 0.61	813.53 ± 0.61	809.9 ± 0.61	806.24 ± 0.6	4.87 ± 0.2	4.175 ± 0.17	3.6 ± 0.15	3.12 ± 0.13
x1 = 0.0408	816.51 ± 0.6	812.92 ± 0.6	809.27 ± 0.6	805.6 ± 0.59	4.696 ± 0.2	4.036 ± 0.17	3.486 ± 0.15	3.026 ± 0.13
x1 = 0.0495	816 ± 0.59	812.4 ± 0.59	808.75 ± 0.59	805.07 ± 0.58	4.562 ± 0.19	3.925 ± 0.16	3.395 ± 0.14	2.951 ± 0.12
x1 = 0.0625	815.23 ± 0.58	811.62 ± 0.58	807.96 ± 0.57	804.26 ± 0.57	4.361 ± 0.18	3.761 ± 0.16	3.259 ± 0.14	2.839 ± 0.12
x1 = 0.0705	814.74 ± 0.57	811.12 ± 0.57	807.44 ± 0.57	803.74 ± 0.56	4.252 ± 0.18	3.67 ± 0.15	3.185 ± 0.13	2.779 ± 0.12
x1 = 0.0799	814.17 ± 0.56	810.54 ± 0.56	806.85 ± 0.56	803.14 ± 0.56	4.113 ± 0.17	3.555 ± 0.15	3.09 ± 0.13	2.699 ± 0.11
x1 = 0.0912	813.49 ± 0.55	809.83 ± 0.55	806.14 ± 0.55	802.42 ± 0.55	3.959 ± 0.17	3.433 ± 0.14	2.991 ± 0.12	2.621 ± 0.11
x1 = 0.0994	813.01 ± 0.55	809.36 ± 0.54	805.66 ± 0.54	801.92 ± 0.54	3.852 ± 0.16	3.343 ± 0.14	2.913 ± 0.12	2.549 ± 0.11
x1 = 0.1508	809.87 ± 0.5	806.15 ± 0.5	802.39 ± 0.5	798.59 ± 0.49	3.253 ± 0.14	2.842 ± 0.12	2.493 ± 0.1	2.198 ± 0.091
x1 = 0.205	806.42 ± 0.46	802.7 ± 0.46	798.86 ± 0.46	795 ± 0.46	2.733 ± 0.11	2.44 ± 0.1	2.173 ± 0.09	1.892 ± 0.079
x1 = 0.2579	802.99 ± 0.43	799.15 ± 0.43	795.26 ± 0.42	791.32 ± 0.42	2.318 ± 0.096	2.067 ± 0.086	1.848 ± 0.077	1.634 ± 0.068
x1 = 0.3	800.17 ± 0.4	796.26 ± 0.4	792.3 ± 0.4	788.3 ± 0.4	2.047 ± 0.085	1.828 ± 0.076	1.636 ± 0.068	1.468 ± 0.061
x1 = 0.3574	796.2 ± 0.37	792.23 ± 0.37	788.18 ± 0.37	784.11 ± 0.37	1.724 ± 0.071	1.56 ± 0.065	1.392 ± 0.058	1.257 ± 0.052
x1 = 0.4012	793.09 ± 0.35	789.05 ± 0.35	784.94 ± 0.35	780.8 ± 0.35	1.53 ± 0.063	1.368 ± 0.056	1.239 ± 0.051	1.122 ± 0.046
x1 = 0.4501	789.54 ± 0.33	785.43 ± 0.33	781.24 ± 0.33	777.03 ± 0.33	1.324 ± 0.055	1.197 ± 0.049	1.09 ± 0.045	0.9929 ± 0.041
x1 = 0.5028	785.58 ± 0.31	781.39 ± 0.31	777.12 ± 0.31	772.81 ± 0.31	1.145 ± 0.047	1.045 ± 0.043	0.9538 ± 0.039	0.8711 ± 0.036
x1 = 0.5637	780.83 ± 0.29	776.53 ± 0.3	772.16 ± 0.3	767.75 ± 0.3	0.9727 ± 0.04	0.8921 ± 0.037	0.8183 ± 0.034	0.7502 ± 0.031
x1 = 0.598	778.11 ± 0.29	773.75 ± 0.29	769.31 ± 0.29	764.84 ± 0.29	0.8885 ± 0.037	0.8156 ± 0.034	0.7488 ± 0.031	0.6862 ± 0.028
x1 = 0.6508	773.76 ± 0.27	769.32 ± 0.27	764.78 ± 0.28	760.21 ± 0.28	0.7769 ± 0.032	0.7149 ± 0.029	0.6592 ± 0.027	0.6063 ± 0.025
x1 = 0.7	769.62 ± 0.26	765.05 ± 0.27	760.44 ± 0.27	755.77 ± 0.27	0.6805 ± 0.028	0.6305 ± 0.026	0.5829 ± 0.024	0.5443 ± 0.023
x1 = 0.7493	765.32 ± 0.26	760.67 ± 0.26	755.96 ± 0.26	751.19 ± 0.26	0.6088 ± 0.025	0.5658 ± 0.023	0.523 ± 0.022	0.481 ± 0.02
x1 = 0.7994	760.79 ± 0.25	756.02 ± 0.25	751.14 ± 0.25	746.31 ± 0.25	0.5397 ± 0.022	0.5033 ± 0.021	0.4676 ± 0.019	0.4306 ± 0.018
x1 = 0.8514	755.91 ± 0.25	751.04 ± 0.25	746.09 ± 0.25	741.09 ± 0.25	0.4782 ± 0.02	0.4484 ± 0.019	0.4172 ± 0.017	0.389 ± 0.016
x1 = 0.903	750.84 ± 0.24	745.85 ± 0.24	740.79 ± 0.25	735.68 ± 0.25	0.424 ± 0.018	0.397 ± 0.017	0.3679 ± 0.016	0.3464 ± 0.015
x1 = 0.9095	750.2 ± 0.24	745.2 ± 0.24	740.12 ± 0.25	735 ± 0.25	0.418 ± 0.017	0.3923 ± 0.017	0.3635 ± 0.015	0.3436 ± 0.015
x1 = 0.9204	749.1 ± 0.24	744.07 ± 0.24	738.99 ± 0.24	733.83 ± 0.25	0.4077 ± 0.017	0.3825 ± 0.016	0.3535 ± 0.015	0.3351 ± 0.014
x1 = 0.9294	748.16 ± 0.24	743.14 ± 0.24	738 ± 0.24	732.83 ± 0.25	0.3999 ± 0.017	0.3756 ± 0.016	0.3485 ± 0.015	0.3282 ± 0.014
x1 = 0.9397	747.1 ± 0.24	742.04 ± 0.24	736.89 ± 0.24	731.69 ± 0.24	0.3904 ± 0.016	0.3661 ± 0.015	0.3396 ± 0.014	0.3202 ± 0.014
x1 = 0.9495	746.08 ± 0.24	741.01 ± 0.24	735.83 ± 0.24	730.61 ± 0.24	0.382 ± 0.016	0.3603 ± 0.015	0.3326 ± 0.014	0.3124 ± 0.013
x1 = 0.9589	745.09 ± 0.24	739.99 ± 0.24	734.79 ± 0.24	729.54 ± 0.24	0.374 ± 0.016	0.3542 ± 0.015	0.3253 ± 0.014	0.3083 ± 0.013
x1 = 0.969	744.04 ± 0.24	738.91 ± 0.24	733.68 ± 0.24	728.41 ± 0.24	0.3661 ± 0.015	0.3441 ± 0.015	0.3206 ± 0.014	0.3023 ± 0.013
x1 = 0.9791	742.95 ± 0.24	737.79 ± 0.24	732.55 ± 0.24	727.25 ± 0.24	0.3582 ± 0.015	0.337 ± 0.014	0.3139 ± 0.013	0.2969 ± 0.013
x1 = 0.9899	741.78 ± 0.24	736.6 ± 0.24	731.33 ± 0.24	726.01 ± 0.24	0.3508 ± 0.015	0.3303 ± 0.014	0.3069 ± 0.013	0.2898 ± 0.013

Source: the NIST ThermoML archive (doi:10.1016/j.jct.2011.02.018)
